Results taken from article PMC12910498 (ACS pharmacology & translational science, 2026).
“And” between values parts separate entries of the source, which are not always exact repeats. Identical values can stand only once. Like-named read-outs stand apart in the source and are kept apart here.

How the values were obtained:
[1] = Phase I metabolic stability in rat liver microsomes (with NADPH); type: in vitro ADME; conditions: pH 7.4, presence of NADPH, mean ± SD, n = 3
Description: (§1) We evaluated the Phase I metabolic stability of compounds 2−7 and 14−19 using rat and human liver microsomes, as previously described.[45]
(§2) Phase I metabolic stability assays were conducted using rat and human liver microsomes as previously described[45],[70] with minor modifications. In brief, the reactions were carried out with 100 mM potassium phosphate buffer, pH 7.4, in the presence of NADPH regenerating system (1.3 mM NADPH, 3.3 mM glucose 6-phosphate, 3.3 mM MgCl2, 0.4 U/mL glucose-6-phosphate dehydrogenase, 50 μM sodium citrate). Negative controls without cofactors were assessed to determine the non-CYP-mediated metabolism. Compound disappearance was monitored over time using a liquid chromatography and tandem mass spectrometry (LC/MS) method. All reactions were performed in triplicate.
(§3) Chromatographic analysis was performed on a Dionex ultra high-performance LC system coupled with Q Exactive Focus orbitrap mass spectrometer (Thermo Fisher Scientific Inc., Waltham MA). Separation was achieved using Agilent Eclipse Plus column (100 × 2.1 mm^2 i.d.; maintained at 35 °C) packed with a 1.8 μm C18 stationary phase. […] The total run time for each analyte was 6.5 min. Pumps were operated at a flow rate of 0.3 mL/min. The mass spectrometer controlled by Xcalibur software 4.0.27.13 (Thermo Scientific) was operated with a HESI ion source in positive ionization mode. Compounds were identified in the full-scan mode (from m/z 50 to 750) by comparing t = 0 samples with t = 30 min and t = 60 min samples.

[2] = biological target: T1, human D2R long isoform (Homo sapiens, UniProt P14416); assay: DiscoverX PathHunter β-arrestin recruitment assay, D2R; conditions: for D2R Ant (%): antagonist mode, EC80 dopamine (1 μM), normalized to spiperone; for Emax: read-out: D2R Emax (%)
[3] = biological target: T2, D5 (Homo sapiens, UniProt P21918); assay: PDSP primary screen, D5; type: binding; conditions: 10 µM compound
T2 construct: Psychoactive Drug Screening Program (PDSP)
Text: (§4) Receptor Primary Secondary Primary Secondary Primary Secondary Primary Secondary screen assay screen assay screen assay screen assay […]
(§5) inhibition in primary assessment.

[4] = biological target: T3, human D4R (Homo sapiens, UniProt P21917); conditions: for D4R Ant. (%): cAMP, antagonist mode, 10 μM forskolin and 10 nM dopamine, normalized to spiperone; for Emax: read-out: D4R Emax (%)
T3 sequence (P21917 1-419): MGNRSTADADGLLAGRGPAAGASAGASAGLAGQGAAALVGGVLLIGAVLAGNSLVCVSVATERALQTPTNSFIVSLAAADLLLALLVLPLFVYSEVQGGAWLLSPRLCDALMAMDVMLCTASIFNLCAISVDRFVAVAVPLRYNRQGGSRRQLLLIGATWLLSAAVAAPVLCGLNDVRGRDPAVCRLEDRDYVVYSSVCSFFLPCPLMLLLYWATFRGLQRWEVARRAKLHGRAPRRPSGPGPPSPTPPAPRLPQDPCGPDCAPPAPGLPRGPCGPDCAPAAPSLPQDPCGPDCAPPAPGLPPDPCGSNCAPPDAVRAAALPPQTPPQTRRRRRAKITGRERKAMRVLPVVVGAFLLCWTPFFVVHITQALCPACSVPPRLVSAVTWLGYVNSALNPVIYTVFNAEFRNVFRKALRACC

[5] = biological target: human D3R (Homo sapiens, UniProt P35462); assay: DiscoverX PathHunter β-arrestin recruitment assay, D3R; conditions: for Emax: read-out: D3R Emax (%)
[6] = biological target: T3, human D4R; assay: DiscoverX PathHunter β-arrestin recruitment assay, D4R; conditions: for D4R average activity at the highest tested dose: at 100 μM (Emax ND); for D4R Ant. (%): antagonist mode, EC80 dopamine (1 μM), normalized to spiperone
[7] = Phase I metabolic stability in human liver microsomes (with NADPH); type: in vitro ADME; conditions: pH 7.4, presence of NADPH, mean ± SD, n = 3
Description: as §1, §2, §3

[8] = Pharmacokinetics study in rats (plasma and brain); type: in vivo, Sprague−Dawley rats; conditions: rat, 5 mg/kg IP
Description: Given their adequate in vitro stability profiles, we next evaluated the in vivo pharmacokinetic profiles of 14, 15, 17, and 18 in rats. Sprague−Dawley rats were dosed with 5 mg/kg (14, 15, 17) or 10 mg/kg (18), i.p., and plasma and brain levels of each drug were measured 0−6 h postdose.
All animal experiments were performed following the protocols evaluated and approved by the Animal Care and Use Committee at Johns Hopkins University (Ethics Approval Number: RA24M403). Pharmacokinetic studies in Sprague−Dawley (SD) rats were conducted according to protocols approved. SD rats obtained from Harlan were maintained on a 12 h light−dark cycle with ad libitum access to food and water. Test compound was administered via i.p. injection at a dose of 10 mg/kg (100% saline vehicle, 10 mL/kg volume). The rats were sacrificed at specified time points (0.25, 0.5 h, 1, 2, 4, and 6 h) post drug administration. For the collection of plasma and brain tissue, animals were euthanized with CO2, and blood samples were collected in heparinized microtubes by cardiac puncture. Brains were dissected and immediately flash-frozen (−80 °C). Blood samples were spun at 2000g for 15 min, and plasma was removed and stored at −80 °C until analysis (as described below).
Quantitation of triazole analogs 14, 15, 17, and 18 was performed using liquid chromatography with tandem mass spectrometry (LC/MS-MS) methods. Briefly, calibration standards were prepared using respective tissue (naïve plasma and brain) with additions of the test compounds. For quantifying the test compounds in the pharmacokinetic samples, plasma samples (20 μL) were processed using a single liquid extraction method by addition of 100 μL of acetonitrile containing internal standard (losartan: 0.5 μM), followed by vortex-mixing for 30 s and then centrifugation at 10,000g for 10 min at 4 °C. Brain tissues were diluted 1:5 w/v with acetonitrile containing losartan (0.5 μm) and homogenized, followed by vortex-mixing and centrifugation at 10,000g for 10 min at 4 °C. A 50 μL aliquot of the supernatant was diluted with 50 μL of water and transferred to 250 μL polypropylene autosampler vials sealed with Teflon caps. Two μL of the sample was injected into the LC/MS/MS system for analysis. Chromatographic analysis was performed using an Accela ultra high-performance system consisting of an analytical pump and an autosampler coupled with a TSQ Vantage mass spectrometer. […] The mobile phase consisted of 0.1% formic acid in acetonitrile and 0.1% formic acid in water with gradient elution, starting with 10% organic phase (from 0 to 1 min) linearly increasing to 95% (from 1 to 2 min), and re-equilibrating to 10% by 3 min. The total run time for each analyte was 3.5 min. Pumps were operated at a flow rate of 0.4 mL/min. […] Plasma concentrations (nmol/mL) as well as brain tissue concentrations (nmol/g) were determined and plots of mean plasma concentration versus time were constructed. Noncompartmental analysis modules in Phoenix WinNonlin version 7.0 (Certara USA, Inc., Princeton, NJ) were used to quantify exposures (AUC0−t) and half-life (t1/2).

[9] = biological target: T4, D1 (Homo sapiens, UniProt P21728); assay: PDSP primary screen and secondary assay, D1; type: binding; conditions: 10 µM compound
T4 construct: Psychoactive Drug Screening Program (PDSP)
Text: as §4, §5

[10] = biological target: T3, human D4R; parameters: host or cells: CHO-K1; method as in PMID 30883109; conditions: previously reported, cited from earlier work
[11] = biological target: T1, human D2R long isoform; parameters: host or cells: CHO-K1; method as in PMID 30883109; conditions: antagonist mode; previously reported; cited from earlier work

T1 sequence (P14416 whole entry, canonical isoform): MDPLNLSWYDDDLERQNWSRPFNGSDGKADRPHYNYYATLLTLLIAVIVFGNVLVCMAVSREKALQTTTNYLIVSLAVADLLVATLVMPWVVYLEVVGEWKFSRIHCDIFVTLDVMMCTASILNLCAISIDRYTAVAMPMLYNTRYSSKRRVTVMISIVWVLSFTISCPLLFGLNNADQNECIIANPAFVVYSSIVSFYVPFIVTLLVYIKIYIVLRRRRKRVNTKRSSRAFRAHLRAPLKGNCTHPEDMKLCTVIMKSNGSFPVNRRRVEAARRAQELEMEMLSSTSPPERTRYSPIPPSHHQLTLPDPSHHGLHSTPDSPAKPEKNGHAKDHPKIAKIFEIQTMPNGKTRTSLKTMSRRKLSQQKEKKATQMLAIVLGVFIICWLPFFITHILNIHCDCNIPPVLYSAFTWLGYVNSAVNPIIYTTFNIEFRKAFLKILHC
Sequence of human D3R (P35462 whole entry): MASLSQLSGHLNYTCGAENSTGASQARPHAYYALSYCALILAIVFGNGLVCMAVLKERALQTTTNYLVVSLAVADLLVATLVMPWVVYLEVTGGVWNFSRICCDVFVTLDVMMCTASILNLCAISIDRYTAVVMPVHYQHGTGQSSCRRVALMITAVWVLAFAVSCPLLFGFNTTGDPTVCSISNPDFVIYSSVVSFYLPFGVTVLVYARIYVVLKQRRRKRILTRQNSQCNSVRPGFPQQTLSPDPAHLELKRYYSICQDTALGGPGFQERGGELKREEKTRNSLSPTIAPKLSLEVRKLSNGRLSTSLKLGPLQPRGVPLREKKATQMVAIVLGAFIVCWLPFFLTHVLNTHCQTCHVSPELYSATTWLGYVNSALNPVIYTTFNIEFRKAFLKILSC
T2 sequence (P21918 whole entry): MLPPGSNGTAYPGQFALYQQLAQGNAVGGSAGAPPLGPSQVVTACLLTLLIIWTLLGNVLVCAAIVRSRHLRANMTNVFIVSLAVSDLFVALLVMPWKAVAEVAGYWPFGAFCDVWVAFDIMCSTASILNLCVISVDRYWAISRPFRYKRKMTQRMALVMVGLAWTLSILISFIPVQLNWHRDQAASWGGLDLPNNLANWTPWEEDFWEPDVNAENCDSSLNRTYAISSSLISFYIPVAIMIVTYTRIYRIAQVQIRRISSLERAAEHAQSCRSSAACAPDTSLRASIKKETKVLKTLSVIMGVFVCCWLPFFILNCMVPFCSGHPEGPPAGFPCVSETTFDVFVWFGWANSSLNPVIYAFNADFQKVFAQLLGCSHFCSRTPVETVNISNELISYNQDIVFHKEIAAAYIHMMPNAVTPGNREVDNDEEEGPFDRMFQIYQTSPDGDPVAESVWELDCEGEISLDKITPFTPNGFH
T4 sequence (P21728 whole entry): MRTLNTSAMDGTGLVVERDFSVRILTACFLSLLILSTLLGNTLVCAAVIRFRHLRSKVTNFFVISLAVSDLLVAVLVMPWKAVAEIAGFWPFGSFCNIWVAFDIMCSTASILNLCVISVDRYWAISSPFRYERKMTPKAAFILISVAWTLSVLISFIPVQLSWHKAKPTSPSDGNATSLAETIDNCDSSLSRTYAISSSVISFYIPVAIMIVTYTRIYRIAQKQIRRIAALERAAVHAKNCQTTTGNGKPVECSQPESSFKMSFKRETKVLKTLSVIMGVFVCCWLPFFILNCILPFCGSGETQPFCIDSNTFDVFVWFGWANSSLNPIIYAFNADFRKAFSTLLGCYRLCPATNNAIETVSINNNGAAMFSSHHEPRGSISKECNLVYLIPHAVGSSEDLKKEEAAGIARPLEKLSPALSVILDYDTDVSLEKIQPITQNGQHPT

Row | Structure (SMILES) | half-life [1] | EC50 [2] | IC50 [2] | D2R Ant (%) [2] | Emax [2] | EC50 [4] | IC50 [4] | D4R Ant. (%) [4] | Emax [4] | EC50 [5] | Emax [5] | EC50 [6] | IC50 [6] | D4R average activity at the highest tested dose ([6]; agonist mode) | D4R Ant. (%) [6] | half-life [7] | also measured
1 | Cc1cccc(-n2cc(CN3CCN(c4ccccn4)CC3)nn2)c1 [Compound 15, 1-(Pyridin-2-yl)-4-((1-(m-tolyl)-1H-1,2,3-triazol-4-yl)-methyl)-piperazine] | 32.9 ± 1.16 min | > 100000 nM | 9050 ± 2500 nM | 87.7 ± 2.6% | 16.5 ± 9.8% | 5.29 ± 1.39 nM | 57.6 ± 5.44 nM | 40 ± 1% | 43 ± 6% | 3600 ± 480 nM | 110 ± 29% | > 100000 nM | 310 ± 49 nM | ND (14% at 100 μM) | 82.8 ± 3.3% | 61.4 ± 7.27 min | inhibition at 10 µM [3]: 1.76%; Kp ([8]; Sprague-Dawley, brain and plasma, ip, 5 mg/kg, AUC brain/plasma, read-out: brain: Plasma ratio): 0.72; half-life ([8]; Sprague-Dawley, brain, ip, 5 mg/kg, brain, read-out: half-life (h) brain (converted)): 1.02 h; half-life ([8]; Sprague-Dawley, plasma and brain, ip, 5 mg/kg, tissue not specified, read-out: half-life (converted)): > 1.1 h; half-life ([8]; Sprague-Dawley, plasma, ip, 5 mg/kg, plasma, read-out: half-life (h) plasma (converted)): 1.09 h; Tmax ([8]; Sprague-Dawley, brain, read-out: Tmax (h) brain): 0.25 h; AUC ([8]; Sprague-Dawley, plasma): 2.65 ± 0.46 µM·h; Cmax ([8]; Sprague-Dawley, plasma): 3.28 ± 1.26 µM; Tmax ([8]; Sprague-Dawley, plasma, read-out: Tmax (h) plasma): 0.25 h; AUC brain ([8]; brain): 1.91 ± 0.31 nmol·h/g; Cmax brain ([8]; brain): 1.83 ± 0.68 nmol/g; peak in vivo brain concentrations expected ([8]; from brain Cmax): greater than 1.8 μM; inhibition at 10 µM [9]: 2.16%
2 | Cc1cccc(NC(=O)CN2CCC(c3ccccc3)CC2)c1 [Compound 5] | 1.99 ± 2.82 min | – | – | – | – | 7.54 ± 2.21 nM | 42.4 ± 10.6 nM | 47 ± 1% | 42 ± 8% | – | – | – | – | – | – | 10.8 ± 0.57 min | D4R Emax (%) ([10]; agonist mode): 14 ± 0.3%; D4R Ant. (%) ([10]; antagonist mode): 93% and 93.3 ± 1.8%; D2R Ant (%) [11]: 99.7 ± 0.3%
3 | Cc1cccc(-n2cc(CN3CCN(c4ncccn4)CC3)nn2)c1 [Compound 16, 2-(4-((1-(m-Tolyl)-1H-1,2,3-triazol-4-yl)methyl)-piperazin-1-yl)pyrimidine] | 68.1 ± 9.51 min | 6870 ± 2500 nM | 19000 nM | 73.2 ± 4.6% | 25.3 ± 4.9% | 7.68 ± 1.88 nM | 67.9 ± 11.3 nM | 45 ± 3% | 39 ± 7% | > 100000 nM | 75 ± 14% | > 100000 nM | 140 ± 35 nM | ND (14% at 100 μM) | 85.2 ± 2.4% | 40.1 ± 1.91 min | IC50 [5]: > 10000 nM; D3R Ant. (%) ([5]; antagonist mode, EC80 dopamine (1 μM), normalized to spiperone): 105 ± 4%; D4R Emax (%) ([6]; agonist mode, in comparison to dopamine): did not show partial agonist activity
